Results taken from ChEMBL document CHEMBL1201862, “PubChem BioAssay data set” (2004).
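Five concentrations, 48 hours, 96-well plates. Here, GI50 denotes the concentration required for 50% inhibition of growth.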 Activity calls are given as the source filed them. Cut-off read from the data, not from the text of the source: active = GI50 up to about 1.1 µM and inactive = higher.

Assays:
Test in all cases: inhibition of tumour cell growth, NCI panel, 48 h
A498 = system: A498
A549 = system: A549
ACHN = system: ACHN
CAKI-1 = system: CAKI-1
EKVX = system: EKVX
HCC 2998 = system: HCC 2998
HOP-92 = system: HOP-92
KM-20L2 = system: KM-20L2
OVCAR-3 = system: OVCAR-3
OVCAR-4 = system: OVCAR-4
OVCAR-8 = system: OVCAR-8
RPMI-8226 = system: RPMI-8226
RXF 393 = system: RXF 393
SF-295 = system: SF-295
SN12C = system: SN12C
SNB-19 = system: SNB-19
SW-620 = system: SW-620
U-251 = system: U-251
HOP-62 = system: HOP-62

| SMILES | GI50 (A498) | GI50 (A549) | GI50 (ACHN) | GI50 (CAKI-1) | GI50 (EKVX) | GI50 (HCC 2998) | GI50 (HOP-92) | GI50 (KM-20L2) | GI50 (OVCAR-3) | GI50 (OVCAR-4) | GI50 (OVCAR-8) | GI50 (RPMI-8226) | GI50 (RXF 393) | GI50 (SF-295) | GI50 (SN12C) | GI50 (SNB-19) | GI50 (SW-620) | GI50 (U-251) | GI50 (HOP-62) |
| --- | --- | --- | --- | --- | --- | --- | --- | --- | --- | --- | --- | --- | --- | --- | --- | --- | --- | --- | --- |
| c1ccc(-c2nnc3nn4c(-c5ccccc5)cnnc4c3c2-c2ccccc2)cc1 | > 100 µM (inactive) | 50.8 µM (inactive) | 55.6 µM (inactive) | 23.7 µM (inactive) | 19.7 µM (inactive) | 48.2 µM (inactive) | 59.8 µM (inactive) | 95.3 µM (inactive) | 26.4 µM (inactive) | 12.9 µM (inactive) | 76.4 µM (inactive) | > 100 µM (inactive) | 14.7 µM (inactive) | 74 µM (inactive) | > 100 µM (inactive) | 25.2 µM (inactive) | > 100 µM (inactive) | 32.6 µM (inactive) | – |
| COc1cc2c(c(OC)c1OC)-c1ccc(SC)c(=O)cc1C(CC(=O)Oc1cccc(F)c1)C2 (stereo unspecified) | 0.0545 µM (active) | 0.577 µM (active) | 0.243 µM (active) | 1.35 µM (inactive) | 2.62 µM (inactive) | 0.111 µM (active) | 1.24 µM (inactive) | 0.0813 µM (active) | 0.0946 µM (active) | 2.05 µM (inactive) | 0.337 µM (active) | 0.165 µM (active) | 0.129 µM (active) | 0.075 µM (active) | 0.222 µM (active) | 0.667 µM (active) | 0.112 µM (active) | 0.115 µM (active) | 0.685 µM (active) |
| CN1C(=O)C(Cl)(C(Cl)(Cl)S(=O)(=O)O)C(=O)c2ccccc21.c1ccncc1 (stereo unspecified) | > 100 µM (inactive) | > 100 µM (inactive) | 76.4 µM (inactive) | > 100 µM (inactive) | > 100 µM (inactive) | > 100 µM (inactive) | > 100 µM (inactive) | 19.5 µM (inactive) | > 100 µM (inactive) | > 100 µM (inactive) | > 100 µM (inactive) | > 100 µM (inactive) | 53.7 µM (inactive) | > 100 µM (inactive) | > 100 µM (inactive) | > 100 µM (inactive) | > 100 µM (inactive) | > 100 µM (inactive) | > 100 µM (inactive) |
| O=C1[C@@H]2C3SC(c4ccccc43)[C@@H]2C(=O)N1c1ccccc1 | > 100 µM (inactive) | > 100 µM (inactive) | > 100 µM (inactive) | > 100 µM (inactive) | > 100 µM (inactive) | > 100 µM (inactive) | > 64.1 µM (inactive) | > 100 µM (inactive) | > 100 µM (inactive) | – | > 100 µM (inactive) | > 100 µM (inactive) | > 100 µM (inactive) | > 88.9 µM (inactive) | > 100 µM (inactive) | 41.9 µM (inactive) | > 100 µM (inactive) | > 66.4 µM (inactive) | > 100 µM (inactive) |
| COc1ccc(OC)c(CCc2ccccc2CC(=O)O)c1 | > 100 µM (inactive) | > 100 µM (inactive) | > 100 µM (inactive) | > 100 µM (inactive) | > 100 µM (inactive) | > 100 µM (inactive) | > 100 µM (inactive) | > 100 µM (inactive) | > 100 µM (inactive) | > 100 µM (inactive) | > 100 µM (inactive) | > 100 µM (inactive) | > 100 µM (inactive) | > 100 µM (inactive) | > 100 µM (inactive) | > 100 µM (inactive) | > 100 µM (inactive) | > 100 µM (inactive) | – |
| COc1cc(-c2nnc3n2NC=C(C(=O)O)S3)cc(OC)c1OC | > 100 µM (inactive) | > 100 µM (inactive) | > 100 µM (inactive) | > 100 µM (inactive) | > 100 µM (inactive) | > 100 µM (inactive) | > 100 µM (inactive) | > 59.2 µM (inactive) | > 100 µM (inactive) | > 62.2 µM (inactive) | > 100 µM (inactive) | > 49.4 µM (inactive) | > 100 µM (inactive) | > 100 µM (inactive) | > 93.1 µM (inactive) | > 100 µM (inactive) | > 39.5 µM (inactive) | > 68.2 µM (inactive) | > 100 µM (inactive) |
